This note sets out measurements from US20250059198A1, “BRM DEGRADING COMPOUNDS AND ASSOCIATED METHODS OF USE” (Arvinas Operations, Inc., priority 2021, published 2025).

The structures appear in SMILES notation. Where only a bound is given, the exact number is not on record here.

This assay concerns the target T1, BRM (Homo sapiens, UniProt P51531).
T1 construct: Western Blot Screen of BRM Degradation in SW1573 Cells; endogenous in cells; host or cells: SW1573 cells
Put plainly: BRM degradation (Dmax and DC50) in SW1573 cells, Western blot screen / In-Cell Western screen. It is filed as cell-based. As to conditions: overnight (18-20 hours) treatment; for Dmax: read-out: Dmax (%)** (% degraded). In a few lines: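 Dmax and DC50 were derived from BRM levels normalised to an alpha-tubulin control, measured by chemiluminescent Western blotting of lysates or by PFA-fixed In-Cell Western on LI-COR Odyssey. SW1573 cells received compound overnight (18–20 h, 0.1% DMSO final).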
Background: A western blot detects proteins with antibodies after separation by electrophoresis.

T1 sequence (P51531 whole entry): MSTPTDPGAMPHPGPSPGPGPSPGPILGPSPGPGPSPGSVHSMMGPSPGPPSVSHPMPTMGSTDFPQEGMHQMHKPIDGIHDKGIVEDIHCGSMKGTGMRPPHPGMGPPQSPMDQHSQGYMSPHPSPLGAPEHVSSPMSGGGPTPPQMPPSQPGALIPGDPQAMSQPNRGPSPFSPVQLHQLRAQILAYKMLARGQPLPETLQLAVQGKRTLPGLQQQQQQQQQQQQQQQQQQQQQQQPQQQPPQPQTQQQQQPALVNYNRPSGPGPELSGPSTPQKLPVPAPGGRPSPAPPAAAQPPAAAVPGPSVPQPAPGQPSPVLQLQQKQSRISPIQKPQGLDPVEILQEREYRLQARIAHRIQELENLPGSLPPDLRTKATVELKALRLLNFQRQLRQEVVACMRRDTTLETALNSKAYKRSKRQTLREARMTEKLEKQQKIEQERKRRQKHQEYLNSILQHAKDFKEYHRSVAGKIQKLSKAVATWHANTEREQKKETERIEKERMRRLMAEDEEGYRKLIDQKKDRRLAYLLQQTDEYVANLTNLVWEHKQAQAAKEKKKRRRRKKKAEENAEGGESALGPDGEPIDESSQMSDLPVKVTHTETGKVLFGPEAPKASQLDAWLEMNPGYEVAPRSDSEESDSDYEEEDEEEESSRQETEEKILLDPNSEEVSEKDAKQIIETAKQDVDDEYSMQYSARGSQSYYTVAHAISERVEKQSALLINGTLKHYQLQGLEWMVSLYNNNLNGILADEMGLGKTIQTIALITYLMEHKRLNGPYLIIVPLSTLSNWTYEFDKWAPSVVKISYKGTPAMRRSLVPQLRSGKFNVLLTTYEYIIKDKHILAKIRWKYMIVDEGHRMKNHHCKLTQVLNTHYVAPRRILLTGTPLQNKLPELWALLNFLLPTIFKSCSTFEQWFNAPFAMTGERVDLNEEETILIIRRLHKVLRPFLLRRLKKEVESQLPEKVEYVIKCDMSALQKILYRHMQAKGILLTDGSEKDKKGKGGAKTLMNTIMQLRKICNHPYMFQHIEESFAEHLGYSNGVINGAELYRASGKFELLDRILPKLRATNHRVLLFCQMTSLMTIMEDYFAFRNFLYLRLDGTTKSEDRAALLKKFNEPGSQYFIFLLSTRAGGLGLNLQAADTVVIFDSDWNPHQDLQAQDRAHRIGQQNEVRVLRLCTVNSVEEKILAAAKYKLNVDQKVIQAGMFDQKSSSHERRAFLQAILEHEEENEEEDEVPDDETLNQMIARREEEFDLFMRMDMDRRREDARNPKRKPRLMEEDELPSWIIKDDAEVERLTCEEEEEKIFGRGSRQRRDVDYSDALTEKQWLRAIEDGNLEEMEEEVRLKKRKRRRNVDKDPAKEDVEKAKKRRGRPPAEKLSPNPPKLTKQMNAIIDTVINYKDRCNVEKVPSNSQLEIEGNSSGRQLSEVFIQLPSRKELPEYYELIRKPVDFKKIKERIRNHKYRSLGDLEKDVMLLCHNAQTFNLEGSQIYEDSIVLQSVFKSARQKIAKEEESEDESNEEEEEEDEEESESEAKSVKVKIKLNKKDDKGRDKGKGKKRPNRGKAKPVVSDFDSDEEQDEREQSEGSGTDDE

Take `CC(C)[C@@H](C(=O)N1C[C@H](O)C[C@H]1C(=O)N[C@@H](C)c1ccc(-c2ccnn2C)cc1)c1cc(N2CCC(CN3CCC(Oc4cc(/C=C(\F)c5cc(-c6ccccc6O)nnc5N)ccn4)CC3)CC2)no1` [Compound 52, (2S,4R)-1-[(2R)-2-{3-[4-({4-[(4-{2-[3-amino-6-(2-hydroxyphenyl)pyridazin-4-yl]-2-fluoroethenyl}pyridin-2-yl)oxy]piperidin-1-yl}methyl)piperidin-1-yl]-1,2-oxazol-5-yl}-3-methylbutanoyl]-4-hydroxy-N-[(1S)-1-[4-(1-methyl-1H-pyrazol-5-yl)phenyl]ethyl]pyrrolidine-2-carboxamide]: the DC50 is below 2.5 nM and the greatest degradation seen (Dmax) was above 75%. With `Cc1ncsc1-c1ccc([C@H](C)NC(=O)[C@@H]2C[C@@H](O)CN2C(=O)[C@@H](c2cc(N3CCC(CN4CCC(O[C@H]5C[C@H](N6CCN(CC7(O)CCN(c8cc(-c9ccccc9O)nnc8N)CC7)CC6)C5)CC4)CC3)no2)C(C)C)cc1` [Compound 57, (2S,4R)-4-hydroxy-N-[(1S)-1-[4-(4-methyl-1,3-thiazol-5-yl)phenyl]ethyl]-1-[(2R)-3-methyl-2-{3-[4-({4-[(1r,3r)-3-[4-({1-[3-amino-6-(2-hydroxyphenyl)pyridazin-4-yl]-4-hydroxypiperidin-4-yl}methyl)piperazin-1-yl]cyclobutoxy]piperidin-1-yl}methyl)piperidin-1-yl]-1,2-oxazol-5-yl}butanoyl]pyrrolidine-2-carboxamide], the DC50 is below 2.5 nM and the greatest degradation seen (Dmax) was above 75%.

On to `CC(C)[C@H](C(=O)N1C[C@H](O)C[C@H]1C(=O)N[C@@H](C)c1ccc(-c2ccnn2C)cc1)c1cc(N2CCC(OC3CCN(CC4CC(N5CCC([C@H](C)n6cc(C#Cc7cc(-c8ccccc8O)nnc7N)cn6)CC5)C4)CC3)CC2)no1` (stereo partly drawn) [Compound 111, (2S,4R)-1-[(2S)-2-{3-[4-({1-[(3-{4-[(1S)-1-(4-{2-[3-amino-6-(2-hydroxyphenyl)pyridazin-4-yl]ethynyl}-1H-pyrazol-1-yl)ethyl]piperidin-1-yl}cyclobutyl)methyl]piperidin-4-yl}oxy)piperidin-1-yl]-1,2-oxazol-5-yl}-3-methylbutanoyl]-4-hydroxy-N-[(1S)-1-[4-(1-methyl-1H-pyrazol-5-yl)phenyl]ethyl]pyrrolidine-2-carboxamide], for which the DC50 is at least 30 nM.

Consider `CC(C)[C@@H](C(=O)N1C[C@H](O)C[C@H]1C(=O)N[C@@H](C)c1ccc(C#N)cc1)c1cc(N2CCC(CN3CCC(O[C@H]4C[C@H](Oc5cc(N6C7CCCC6CN(c6cc(-c8ccccc8O)nnc6N)C7)ccn5)C4)CC3)CC2)no1` [Compound 16, (2S,4R)-N-[(1S)-1-(4-cyanophenyl)ethyl]-4-hydroxy-1-[(2R)-3-methyl-2-{3-[4-({4-[(1r,3r)-3-[(4-{3-[3-amino-6-(2-hydroxyphenyl)pyridazin-4-yl]-3,9-diazabicyclo[3.3.1]nonan-9-yl}pyridin-2-yl)oxy]cyclobutoxy]piperidin-1-yl}methyl)piperidin-1-yl]-1,2-oxazol-5-yl}butanoyl]pyrrolidine-2-carboxamide], for which the half-maximal degradation concentration (DC50) is below 2.5 nM and the greatest degradation seen (Dmax) is above 75%. Regarding `Cc1ncsc1-c1ccc([C@H](C)NC(=O)[C@@H]2C[C@@H](O)CN2C(=O)[C@@H](c2cc(N3CCC(CN4CCC5(CC4)CC(N4CCO[C@H]([C@H](C)n6cc(C#Cc7cc(-c8ccccc8O)nnc7N)cn6)C4)C5)CC3)no2)C(C)C)cc1` [Compound 96, (2S,4R)-1-[(2R)-2-{3-[4-({2-[(2S)-2-[(1S)-1-(4-{2-[3-amino-6-(2-hydroxyphenyl)pyridazin-4-yl]ethynyl}-1H-pyrazol-1-yl)ethyl]morpholin-4-yl]-7-azaspiro[3.5]nonan-7-yl}methyl)piperidin-1-yl]-1,2-oxazol-5-yl}-3-methylbutanoyl]-4-hydroxy-N-[(1S)-1-[4-(4-methyl-1,3-thiazol-5-yl)phenyl]ethyl]pyrrolidine-2-carboxamide], the DC50 is below 2.5 nM and the Dmax is above 75%. For the compound `Cc1ncsc1-c1ccc([C@H](C)NC(=O)[C@@H]2C[C@@H](O)CN2C(=O)[C@@H](c2cc(N3CCC(CN4CC[C@H](OC(=O)N5CCN(c6cc(-c7ccccc7O)nnc6N)CC5)[C@@H](F)C4)CC3)no2)C(C)C)cc1` [Compound 104, (3S,4S)-3-fluoro-1-[(1-{5-[(2R)-1-[(2S,4R)-4-hydroxy-2-{[(1S)-1-[4-(4-methyl-1,3-thiazol-5-yl)phenyl]ethyl]carbamoyl}pyrrolidin-1-yl]-3-methyl-1-oxobutan-2-yl]-1,2-oxazol-3-yl}piperidin-4-yl)methyl]piperidin-4-yl 4-[3-amino-6-(2-hydroxyphenyl)pyridazin-4-yl]piperazine-1-carboxylate], the DC50 was below 2.5 nM and the Dmax was above 75%.

With `CC(C)[C@@H](C(=O)N1C[C@H](O)C[C@H]1C(=O)N[C@@H](C)c1ccc(Cl)cc1)c1cc(N2CCC(CN3CCC(O[C@H]4C[C@H](Oc5cc(N6C7CCC6CN(c6cc(-c8ccccc8O)nnc6N)C7)ccn5)C4)CC3)CC2)no1` (relative stereo) [Compound 48, (2S,4R)-N-[(1S)-1-(4-chlorophenyl)ethyl]-4-hydroxy-1-[(2R*)-3-methyl-2-{3-[4-({4-[(1rs,3rs)-3-[(4-{3-[3-amino-6-(2-hydroxyphenyl)pyridazin-4-yl]-3,8-diazabicyclo[3.2.1]octan-8-yl}pyridin-2-yl)oxy]cyclobutoxy]piperidin-1-yl}methyl)piperidin-1-yl]-1,2-oxazol-5-yl}butanoyl]pyrrolidine-2-carboxamide], the half-maximal degradation concentration (DC50) was 10 to 30 nM and the Dmax was above 75%. On the same counts, the results for `Cc1ncsc1-c1ccc([C@H](C)NC(=O)[C@@H]2C[C@@H](O)CN2C(=O)[C@@H](c2cc(N3CCC(OC(=O)N4CCC(Oc5cc(N6C7CCC6CN(c6cc(-c8ccccc8O)nnc6N)C7)ccn5)CC4)CC3)no2)C(C)C)cc1` [Compound 128, 1-(5-((R)-1-((2S,4R)-4-hydroxy-2-(((S)-1-(4-(4-methylthiazol-5-yl)phenyl)ethyl)carbamoyl)pyrrolidin-1-yl)-3-methyl-1-oxobutan-2-yl)isoxazol-3-yl)piperidin-4-yl 4-((4-(3-(3-amino-6-(2-hydroxyphenyl)pyridazin-4-yl)-3,8-diazabicyclo[3.2.1]octan-8-yl)pyridin-2-yl)oxy)piperidine-1-carboxylate] are below 2.5 nM and above 75%. For the compound `Cc1ncsc1-c1ccc([C@H](C)NC(=O)[C@@H]2C[C@@H](O)CN2C(=O)[C@H](c2cc(N3CCC(O[C@H]4CC[C@H](Oc5cc(N6C7CCC6CN(c6cc(-c8ccccc8O)nnc6N)C7)ccn5)CC4)CC3)no2)C(C)C)cc1` [Compound 135, (2S,4R)-4-hydroxy-N-[(1S)-1-[4-(4-methyl-1,3-thiazol-5-yl)phenyl]ethyl]-1-[(2S)-3-methyl-2-[3-(4-{[(1r,4r)-4-[(4-{3-[3-amino-6-(2-hydroxyphenyl)pyridazin-4-yl]-3,8-diazabicyclo[3.2.1]octan-8-yl}pyridin-2-yl)oxy]cyclohexyl]oxy}piperidin-1-yl)-1,2-oxazol-5-yl]butanoyl]pyrrolidine-2-carboxamide], the DC50 was at least 30 nM.

Regarding `Cc1ncsc1-c1ccc([C@H](C)NC(=O)[C@@H]2C[C@@H](O)CN2C(=O)[C@@H](c2cc(N3CCC(CN4CCC5(CC4)CC(N4CCO[C@H](CN6C7CCC6CN(c6cc(-c8ccccc8O)nnc6N)C7)C4)C5)CC3)no2)C(C)C)cc1` [Compound 35, (2S,4R)-1-[(2R)-2-{3-[4-({2-[(2S)-2-({3-[3-amino-6-(2-hydroxyphenyl)pyridazin-4-yl]-3,8-diazabicyclo[3.2.1]octan-8-yl}methyl)morpholin-4-yl]-7-azaspiro[3.5]nonan-7-yl}methyl)piperidin-1-yl]-1,2-oxazol-5-yl}-3-methylbutanoyl]-4-hydroxy-N-[(1S)-1-[4-(4-methyl-1,3-thiazol-5-yl)phenyl]ethyl]pyrrolidine-2-carboxamide], the 50% degradation concentration (DC50) is below 2.5 nM and the Dmax is above 75%. Take `Cc1ncsc1-c1ccc([C@H](C)NC(=O)[C@@H]2C[C@@H](O)CN2C(=O)[C@@H](c2cc(N3CCC(CN4CCC(O[C@H]5C[C@H](N6CCC(C(C)n7cc(/C=C/c8cc(-c9ccccc9O)nnc8N)cn7)CC6)C5)CC4)CC3)no2)C(C)C)cc1` (stereo partly drawn) [Compound 69, (2S,4R)-4-hydroxy-N-[(1S)-1-[4-(4-methyl-1,3-thiazol-5-yl)phenyl]ethyl]-1-[(2R)-3-methyl-2-{3-[4-({4-[(1r,3r)-3-[4-(1-{4-[(1E)-2-[3-amino-6-(2-hydroxyphenyl)pyridazin-4-yl]ethenyl]-1H-pyrazol-1-yl}ethyl)piperidin-1-yl]cyclobutoxy]piperidin-1-yl}methyl)piperidin-1-yl]-1,2-oxazol-5-yl}butanoyl]pyrrolidine-2-carboxamide]: the DC50 is below 2.5 nM and the maximal degradation (Dmax) was above 75%. The matching figures for `Cc1ncsc1-c1ccc([C@H](C)NC(=O)[C@@H]2C[C@@H](O)CN2C(=O)[C@@H](c2cc(O[C@H]3C[C@H](CN4CCC(O[C@H]5C[C@H](N6CCOC7(CCN(c8cc(-c9ccccc9O)nnc8N)CC7)C6)C5)CC4)C3)no2)C(C)C)cc1` [Compound 68, (2S,4R)-4-hydroxy-N-[(1S)-1-[4-(4-methyl-1,3-thiazol-5-yl)phenyl]ethyl]-1-[(2R)-3-methyl-2-{3-[(1r,3r)-3-({4-[(1r,3r)-3-{9-[3-amino-6-(2-hydroxyphenyl)pyridazin-4-yl]-1-oxa-4,9-diazaspiro[5.5]undecan-4-yl}cyclobutoxy]piperidin-1-yl}methyl)cyclobutoxy]-1,2-oxazol-5-yl}butanoyl]pyrrolidine-2-carboxamide]: below 2.5 nM and above 75%.

A word on the DC50: it is the concentration at which degradation of the target reaches its halfway point. Read a high DC50 as a less potent degrader. For orientation: Dmax means the largest share of the target that was removed.
